Tests used:
3T3-L1 cells [1] = test: MTT assay, cytotoxicity of PC in 3T3-L1 cells; format: cell-based, mouse; settings: 0-100 μM PC, 48 hours
Procedure: 3T3-L1 preadipocytes were inoculated into a 96-well cell culture plate by 1×10^4 cells/well and incubated overnight. The medium was then replaced with DMEM including different concentrations of PC (0, 5, 10, 25, 50, 75, and 100 μM) for 48 hours.
(§1) After PC treatment, cells were incubated with MTT solution (0.5 mg/ml dissolved in PBS) for 2 hours. After incubation, the medium in each well was removed, and dimethyl sulfoxide was added to dissolve the precipitated formazan. When formazan was completely dissolved, the absorbance was measured at 540 nm using a microplate reader (Bio-Rad) to determine cell viability.
In order to identify cytotoxicity of PC in 3T3-L1 cells, various concentrations of PC (0, 5, 10, 25, 50, 75, and 100 μM) were treated for 48 hours, and then cell viability was determined using MTT assay.

3T3-L1 cells [2] = test: Oil Red O staining, adipocyte differentiation / lipid accumulation in 3T3-L1 preadipocytes; format: cell-based, mouse; settings: 3T3-L1 cells differentiated with PC 0, 25, 50 μM; vs fully differentiated adipocytes
Procedure: (§2) 3T3-L1 cells were inoculated into a 6-well plate in a density of 8×10^4 cells/well, and the medium was replaced until the confluence is satisfied. For differentiation, cells were incubated in differentiation media (0.5 mM IBMX, 0.5 μM dexamethasone, and 1 μg/mL insulin). The medium was then replaced with a maintenance culture including 1 μg/mL insulin and PC (0-50 μM) once every 2 days.
(§3) The treated cells were washed with PBS and fixed with 10% formalin for 1 hour. The cells were then washed with 60% isopropanol and dried completely. A 60% Oil Red O working solution diluted in distilled water (DW) was added to the cells. In the case of hepatocytes, in order to observe the morphology of the cells, they were additionally treated with hematoxylin for 1 minute for staining. The stained cells were washed with DW 3 times and photographed using the Olympus IX71 microscope (Olympus, Tokyo, Japan). To quantify lipid accumulation, stained cells were dissolved in 100% isopropanol, and measurement was performed at 490 nm with a microplate reader (Bio-Rad).
To investigate whether PC has an inhibitory effect on adipose tissue differentiation, cells were differentiated in the presence and absence of PC at various concentrations (0, 25, and 50 μM), and then Oil red O staining was used. […] Thus, PC reduced accumulation of lipids in 3T3-L1 cells during adipose tissue generation differentiation.

C/EBPα [3] = test: Western blotting, C/EBPα protein in MDI-induced 3T3-L1 adipocytes; format: cell-based, mouse; settings: vs MDI-induced group
Procedure: as §2
(§4) Cell lysis buffer (Cell Signaling Technology) was used to lyse cells. The reagent for Bio-Rad protein assay was used to measure protein concentrations for Bradford assay. Each sample was separated by sodium dodecyl sulfate polyacrylamide gel electrophoresis using 8% acrylamide gel and then electrotransferred to a nitrocellulose membrane. The membrane was blocked with 3% bovine serum albumin (BSA) in Tris buffered saline/Tween 20 (TBS-T) at 4° C. for 1 hour and incubated overnight at 4° C. with COX-2, C/EBPα, PPARγ, SREBP1c, FAS, p-ACC, t-ACC, p-AMPK, t-AMPK (1:2000), and β-actin (1:10,000) antibodies. The membrane was extensively washed with TBS-T at 3 or more times for 30 minutes and incubated with goat anti-rabbit IgG-horseradish peroxidase (HRP) and goat anti-mouse IgG-HRP (1:10,000 all in TBS-T) secondary antibodies for 1 hour.
(§5) To investigate how PC inhibits adipose tissue generation in 3T3-L1 cells, investigation was performed on protein expression levels of key adipose tissue generation markers. […]

PPARγ [4] = test: Western blotting, PPARγ protein in MDI-induced 3T3-L1 adipocytes; format: cell-based, mouse; settings: vs MDI-induced group
Procedure: as §2, §4, §5

C/EBPα [5] = test: Real-time PCR, C/EBPα mRNA in 3T3-L1 adipocytes; format: cell-based, mouse; settings: vs fully differentiated adipocytes
Procedure: as §2
(§6) Cells were treated with Ribo-Ex to extract RNA using GeneAll Hybrid-R RNA purification kit (GeneAll, Seoul, Korea). RNA was quantified using NanoDrop (Thermo Fisher Scientific). Amplification of complementary DNA was performed at 45° C. for 60 minutes and 95° C. for 15 minutes using a Maxime RT premix (iNtRON Biotechnology, South Korea). Real-time quantitative PCR was performed using the Universal SYBR Green Master Mix (Applied Biosystems, Foster City, CA, USA). Real-time PCR was performed on Applied Biosystems StepOne System (Applied Biosystems). In this study, relative target gene expression was quantified relatively to gene expression of glyceraldehyde 3-phosphate dehydrogenase to determine mRNA expression levels.
(§7) To investigate how PC inhibits adipose tissue generation in 3T3-L1 cells, investigation was performed on protein expression levels of key adipose tissue generation markers. C/EBPα and PPARγ are well-known major transcription factors in adipose tissue generation. […]

PPARγ [6] = test: Real-time PCR, PPARγ mRNA in 3T3-L1 adipocytes; format: cell-based, mouse; settings: vs fully differentiated adipocytes
Procedure: as §2, §6, §7

C/EBPβ = test: Real-time PCR, C/EBPβ mRNA in 3T3-L1 adipocytes; format: cell-based, mouse; settings: vs adipocytes
Procedure: as §2, §6
(§8) In order to additionally identify expression of other adipose tissue generation markers such as C/EBPβ and C/EBPδ, mRNA levels of these markers were examined.

C/EBPδ = test: Real-time PCR, C/EBPδ mRNA in 3T3-L1 adipocytes; format: cell-based, mouse; settings: vs adipocytes
Procedure: as §2, §6, §8

FAS [7] = test: Western blotting, FAS protein in 3T3-L1 adipocytes; format: cell-based, mouse; settings: dose-dependently, vs fully differentiated adipocytes
Procedure: as §2
as §4, with “hour. […]” for “hour.”

SREBP1c [8] = test: Western blotting, SREBP1c protein in 3T3-L1 adipocytes; format: cell-based, mouse; settings: dose-dependently, vs fully differentiated adipocytes
Procedure: as §2
as §4, with “hour. […]” for “hour.”

FAS [9] = test: Real-time PCR, FAS RNA in 3T3-L1 adipocytes; format: cell-based, mouse; settings: vs fully differentiated adipocytes
Procedure: as §2, §6
(§9) In order to determine whether the PC inhibits the adipogenic factors, the degree of expression of the adipogenic factors was examined through Western blotting and real-time PCR. FAS and SREBP1 play an important role in adipogenesis, protein expression levels of which were investigated. […]

SREBP1c [10] = test: Real-time PCR, SREBP1c RNA in 3T3-L1 adipocytes; format: cell-based, mouse; settings: vs fully differentiated adipocytes
Procedure: as §2, §6, §9

SREBP1c [11] = test: Immunofluorescence analysis, SREBP1c in MDI-induced adipocytes; format: cell-based, mouse
Procedure: The cells were treated with or without PC in a 4-well confocal dish. After treatment, the cells were fixed with 10% formalin for 10 minutes, treated with 0.2% Triton X diluted in PBS for 20 minutes, washed with PBS 3 times, and blocked with 5% BSA dissolved in PBS for 1 hour. Next, cells were incubated overnight in the presence of anti-SREBP1 antibodies (1:500 in PBS) at 4° C., followed by incubation in the presence of Alexa Fluor-555 antibody for 1 hour at room temperature. The cell nucleus was stained with 4,6-diamidino-2-phenylindole (DAPI: Sigma-Aldrich) at room temperature for 3 minutes. DAPI-stained cells were washed with PBS for 30 minutes, and fluorescence was observed using CELENA™ S Digital Imaging System (Logos Biosystems, Inc.).
In order to determine whether the PC inhibits the adipogenic factors, the degree of expression of the adipogenic factors was examined through Western blotting and real-time PCR. FAS and SREBP1 play an important role in adipogenesis, protein expression levels of which were investigated. […] In addition, according to FIGS. 3B and 3C, the RNA level was reduced compared to fully differentiated adipocytes.

AMPK = test: Western blotting, AMPK phosphorylation in 3T3-L1 adipocytes; format: cell-based, mouse
Procedure: as §2, §4
(§10) The MAPK/Akt and AMPK/ACC signaling pathways are involved in the general steps of adipose tissue generation. […]

ACC = test: Western blotting, ACC phosphorylation in 3T3-L1 adipocytes; format: cell-based, mouse
Procedure: as §2, §4, §10

MAPK kinase = test: Western blotting, activated MAPK kinase in MDI-induced adipocytes; format: cell-based, mouse; settings: MDI-induced adipocytes (ERK, JNK, p38)
Procedure: as §2, §4
(§11) Next, MAPK and Akt signaling in adipocytes in the presence of PC were investigated by Western Blotting.

Akt = test: Western blotting, activated Akt in MDI-induced adipocytes; format: cell-based, mouse
Procedure: as §2, §4, §11

HepG2 cells [12] = test: MTT assay, cytotoxicity of PC and NEFA in HepG2 cells; format: cell-based, human; settings: 0-100 μM PC, 24 hours
Procedure: (§12) HepG2 hepatocytes were inoculated into a 96-well cell culture plate by 1×10^4 cells/well and incubated overnight. Then, for 24 hours, they were replaced with fatty liver induction media including different concentrations of PC (0, 5, 10, 25, 50, and 100 μM).
as §1
In order to identify cytotoxicity of PC and NEFA in HepG2 cells, various concentrations of PC (0, 5, 10, 25, 50, and 100 μM) or NEFA (0, 0.5, 1, and 2 mM) were treated for 24 hours, and then MTT assay was used to determine cell viability.

HepG2 cells [13] = test: MTT assay, cell viability in NEFA-treated fatty liver-induced HepG2 cell model; format: cell-based, human; settings: 1 mM NEFA with 50 µM PC, 24 hours
Procedure: (§13) HepG2 cells were inoculated into a 6-well plate in a density of 3×10^5 cells/well and incubated for one day. Then, for fatty liver induction, an FBS-free RPMI medium supplemented with 1% bovine serum albumin (BSA) and NEFA (0.66 mM oleic acid and 0.33 mM palmitic acid) was treated, followed by incubation for 24 hours. When treated with PC (0-50 μM), fatty liver induction medium was treated together for incubation for 24 hours.
as §12, §1
To determine the preventive and therapeutic effects of PC in fatty liver-induced cell models, treatment of 1 mM NEFA as well as various concentrations of PC (0, 5, 10, 25, 50 μM) were performed for 24 hours, and then MTT assay was used to determine cell viability.

HepG2 cells [14] = test: Oil Red O staining, fat accumulation in fatty liver-induced HepG2 cells; format: cell-based, human; settings: PC 0, 25, 50 μM, vs cells solely treated with NEFA
Procedure: as §13, §3
To investigate whether PC has an inhibitory effect on fat accumulation, cells were treated in the presence and absence of PC at various concentrations (0, 25, and 50 μM), using Oil red O staining. […] Thus, PC reduced accumulation of lipid in fatty liver-induced HepG2 cells.

FAS [15] = test: Western blotting, FAS in NEFA-induced fatty liver HepG2 cells; format: cell-based, human; settings: dose-dependently, vs NEFA-induced fatty liver cells
Procedure: as §13, §4
(§14) Due to treatment of free fatty acids such as NEFA, fatty liver is induced by fat accumulation. […]

ACC1 = test: Western blotting, ACC1 in NEFA-induced fatty liver HepG2 cells; format: cell-based, human; settings: dose-dependently, vs NEFA-induced fatty liver cells
Procedure: as §13, §4, §14

COX-2 = test: Western blotting, COX-2 in NEFA-induced fatty liver HepG2 cells; format: cell-based, human; settings: NEFA-treated HepG2 cells
Procedure: as §13, §4
It is known that if the symptoms persist in the fatty liver stage, it causes an inflammatory reaction to develop steatohepatitis. […]

[16] = PC treatment, 3T3-L1 adipocytes
[17] = vs fully differentiated adipocytes

## Polygalin C [PC]
3T3-L1 cells [1]
  concentration with non-toxic effect (cell viability, MTT): up to 50 μM
3T3-L1 cells [2]
  production of lipid droplets (Oil red O): dose-dependently inhibited
C/EBPα [3]
  relative protein level of C/EBPα: decreased dose-dependently
PPARγ [4]
  relative protein level of PPARγ: decreased dose-dependently
C/EBPα [5]
  mRNA expression level of C/EBPα: reduced
PPARγ [6]
  mRNA expression level of PPARγ: reduced
C/EBPβ
  mRNA level of C/EBPβ: decreased concentration-dependently
C/EBPδ
  mRNA level of C/EBPδ: decreased concentration-dependently
FAS [7]
  protein expression level of FAS: significantly reduced
SREBP1c [8]
  protein expression level of SREBP1c: significantly reduced
FAS [9]
  RNA level of FAS: reduced
SREBP1c [10]
  RNA level of SREBP1c: reduced
SREBP1c [11]
  MDI-induced SREBP1c expression (immunofluorescence): significant relieving effect
AMPK; [16]
  total AMPK expression level: unchanged
AMPK; [17]
  phosphorylation of AMPK: significantly increased
ACC; [16]
  total ACC expression level: unchanged
ACC; [17]
  phosphorylation of ACC: significantly increased
MAPK kinase
  expression level of activated MAPK kinase: significantly reduced dose-dependently
Akt
  expression level of activated Akt: significantly reduced dose-dependently
HepG2 cells [12]
  concentration with non-toxic effect (cell viability, MTT): up to 100 μM
HepG2 cells [13]
  cell viability (MTT) in NEFA-treated cells: cell viability was restored
HepG2 cells [14]
  production of lipid droplets (Oil red O): dose-dependently inhibited
FAS [15]
  expression level of FAS: significantly reduced
ACC1
  expression level of ACC1: significantly reduced
COX-2
  expression of COX-2 induced by NEFA treatment: reduced concentration-dependently

Source: patent publication US12678403B2, “Pharmaceutical composition for preventing or treating obesity or non-alcoholic fatty liver containing Polygalin C as active ingredient” (UNIVERSITY-INDUSTRY COOPERATION GROUP OF KYUNG HEE …, priority 2021, dated 2026)
